# Measurements from publication PMC8536124 (International Journal of Molecular Sciences, 2021).
# Key:
# MDA-MB-468 = test: NCI-60 screening (SRB); assay type: cell-based, human; settings: five-dose
# T-47D = test: NCI-60 screening (SRB); assay type: cell-based, human; settings: five-dose
# MALME-3M = test: NCI-60 screening (SRB); assay type: cell-based, human; settings: MALME-3M, five-dose
# SK-MEL-5 = test: NCI-60 screening (SRB); assay type: cell-based, human
# SN12C = test: NCI-60 screening (SRB); assay type: cell-based, human; settings: five-dose
# SK-OV-3 = test: NCI-60 screening (SRB); assay type: cell-based, human; settings: Homo sapiens, five-dose
# DU-145 = test: NCI-60 screening (SRB); assay type: cell-based, human; settings: five-dose
# PC-3 = test: NCI-60 screening (SRB); assay type: cell-based, human; settings: five-dose
# OVCAR-8 = test: NCI-60 screening (SRB); assay type: cell-based, human; settings: five-dose
# HOP-62 = test: NCI-60 screening (SRB); assay type: cell-based, human; settings: five-dose
# CNS cancer = test: cells; assay type: cell-based
# Text: The experimental data allow the assessment of the cytostatic effect, indicated by growth inhibition values ranging between 0 and 100, as well as of the cytotoxic effect, indicated by negative values.
# The mean GI50 (molar concentration of the compound that inhibits 50% net cell growth), TGI (molar concentration of the compound leading to the total inhibition), and LC50 (molar concentration of the compound leading to 50% net cell death (presented in negative logarithm)) values across each cell line are shown in Table 2.
# The selectivity index (SI), calculated as the ratio between the full panel MG_MID60 (μM) of compounds 4, 6, and 9 by their respective subpanels MG_MID of the cell line (μM), was introduced as a quantification tool for the selectivity of each compound in terms of anticancer effect (Table 3).
# Primary anticancer assays were performed according to the NCI protocol, as described elsewhere (see e.g., http://dtp.nci.nih.gov accessed on 1 November 2018). The compounds were added at a single concentration, and the cell cultures were incubated for 48 h. The end point determinations were made with a protein-binding dye, sulforhodamine B (SRB). […] The percentage of growth was evaluated spectrophotometrically versus controls not treated with test agents after 48 h exposure and using SRB protein assay to estimate cell viability or growth. Three antitumor activity dose-response parameters were calculated for each cell line. Furthermore, mean graph midpoints (MG_MID) were calculated for each of the parameters, giving an average activity parameter over all cell lines for the tested compound. For the MG_MID calculation, insensitive cell lines were included with the highest concentration tested.
# HOP-92 = test: NCI-60 screening (SRB); assay type: cell-based, human; settings: five-dose
# SK-MEL-2 = test: NCI-60 screening (SRB); assay type: cell-based, human; settings: five-dose
# NCI/ADR-RES = test: NCI-60 screening (SRB); assay type: cell-based, human; settings: five-dose
# 786-0 = test: NCI-60 screening (SRB); assay type: cell-based, human; settings: five-dose
# CAKI-1 = test: NCI-60 screening (SRB); assay type: cell-based, human; settings: CAKI-1, five-dose
# UACC-62 = test: NCI-60 screening (SRB); assay type: cell-based, human; settings: five-dose
# SF-539 = test: NCI-60 screening (SRB); assay type: cell-based, human; settings: SF-539, five-dose
# NCI-H23 = test: NCI-60 screening (SRB); assay type: cell-based, human; settings: five-dose
# HCT-15 = test: NCI-60 screening (SRB); assay type: cell-based, human; settings: five-dose
# U251 = test: NCI-60 screening (SRB); assay type: cell-based, human
# EKVX = test: NCI-60 screening (SRB); assay type: cell-based, human; settings: five-dose
# HS 578T = test: NCI-60 screening (SRB); assay type: cell-based, human; settings: five-dose
# SF-295 = test: NCI-60 screening (SRB); assay type: cell-based, human; settings: five-dose
# MCF7 = test: NCI-60 screening (SRB); assay type: cell-based, human; settings: five-dose
# MDA-MB-31/ATCC = test: NCI-60 screening (SRB); assay type: cell-based, human; settings: five-dose
# SNB-19 = test: NCI-60 screening (SRB); assay type: cell-based, human; settings: five-dose
# [1] = Homo sapiens, read-out: LC50 (the source's name)
structure (smiles),measurement,setting,value
CCN1CCN(C(=O)[C@]23CCC(C)(C)C[C@H]2C2=CC[C@@H]4[C@@]5(C)C/C(=C/c6cccnc6)C(=O)C(C)(C)[C@@H]5CC[C@@]4(C)[C@]2(C)CC3)CC1 [Compound 6],GI50,MDA-MB-468; Homo sapiens,1.28 µM
same,CC50,MDA-MB-468; [1],19.7 µM
same,TGI,MDA-MB-468,3.94 µM
same,GI50,"T-47D; Homo sapiens, T47D",2.61 µM
same,LC50 (concentration killing 50% of cells),"T-47D; Homo sapiens, T47D",> 100 µM
same,TGI,T-47D,13.7 µM
same,GI50,MALME-3M; Homo sapiens,1.53 µM
same,CC50,MALME-3M; [1],5.54 µM
same,TGI,MALME-3M,2.91 µM
same,GI50,"SK-MEL-5; Homo sapiens, SK-MEL-5, five-dose",1.63 µM
same,CC50,"SK-MEL-5; Homo sapiens, SK-MEL-5, five-dose, read-out: LC50 (the source's name)",5.54 µM
same,Growth %,"SK-MEL-5; SK-MEL-5, 1 dose 10 µM",−91.03%
same,TGI,"SK-MEL-5; SK-MEL-5, five-dose",3.00 µM
same,cell death,"SK-MEL-5; SK-MEL-5 melanoma, 1 dose 10 µM",88.15%
same,GI50,SN12C; Homo sapiens,1.22 µM
same,CC50,SN12C; [1],5.3 µM
same,TGI,SN12C,2.54 µM
same,GI50,SK-OV-3,4.19 µM
same,CC50,SK-OV-3; read-out: LC50 (the source's name),76.1 µM
same,GI50,DU-145; Homo sapiens,1.83 µM
same,CC50,DU-145; [1],8.23 µM
same,TGI,DU-145,3.88 µM
same,GI50,PC-3; Homo sapiens,1 µM
same,CC50,PC-3; [1],7.78 µM
same,TGI,PC-3,2.79 µM
same,GI50,OVCAR-8; Homo sapiens,2.14 µM
same,CC50,OVCAR-8; [1],> 100 µM
same,TGI,OVCAR-8,5.54 µM
same,GI50,HOP-62; Homo sapiens,1.88 µM
same,LC50,HOP-62; Homo sapiens,7.47 µM
same,TGI,HOP-62,3.75 µM
same,TGI MG_MID,"CNS cancer; CNS cancer subpanel, five-dose",3.50 µM
same,SI (TGI),"CNS cancer; CNS cancer, MG_MID60/subpanel MG_MID",1.80
same,GI50,"CNS cancer; Homo sapiens, CNS cancer subpanel, five-dose, read-out: GI50 MG_MID",1.63 µM
same,CC50,"CNS cancer; Homo sapiens, CNS cancer subpanel, five-dose, read-out: LC50 MG_MID",22.1 µM
same,GI50,HOP-92; Homo sapiens,1.06 µM
same,CC50,HOP-92; [1],10.1 µM
same,TGI,HOP-92,3.26 µM
same,GI50,SK-MEL-2; Homo sapiens,1.93 µM
same,CC50,SK-MEL-2; [1],8.16 µM
same,TGI,SK-MEL-2,3.96 µM
same,GI50,NCI/ADR-RES; Homo sapiens,1.57 µM
same,CC50,NCI/ADR-RES; [1],7.6 µM
same,TGI,NCI/ADR-RES,3.46 µM
same,GI50,786-0; Homo sapiens,1.6 µM
same,CC50,786-0; [1],5.91 µM
same,TGI,786-0,3.08 µM
same,TGI,CAKI-1,11.8 µM
same,GI50,CAKI-1; Homo sapiens,2.08 µM
same,CC50,CAKI-1; [1],45.3 µM
same,GI50,UACC-62; Homo sapiens,1.28 µM
same,CC50,UACC-62; [1],6.23 µM
same,TGI,UACC-62,2.83 µM
same,GI50,SF-539; Homo sapiens,1.62 µM
same,CC50,SF-539; [1],5.55 µM
same,TGI,SF-539,3.00 µM
same,GI50,NCI-H23; Homo sapiens,2.1 µM
same,CC50,NCI-H23; [1],27.8 µM
same,TGI,NCI-H23,5.85 µM
same,GI50,HCT-15; Homo sapiens,1.08 µM
same,CC50,HCT-15; [1],6.79 µM
same,TGI,HCT-15,2.71 µM
same,GI50,"U251; Homo sapiens, U-251, U251, five-dose",1.58 µM
same,CC50,"U251; Homo sapiens, U-251, U251, five-dose, read-out: LC50 (the source's name)",6.13 µM
same,Growth %,"U251; U251 (CNS cancer), 1 dose 10 µM",−88.15%
same,TGI,"U251; U251, five-dose",3.11 µM
same,GI50,EKVX; Homo sapiens,1.9 µM
same,LC50,EKVX; Homo sapiens,43.5 µM
same,TGI,EKVX,6.48 µM
same,GI50,HS 578T; Homo sapiens,1.83 µM
same,CC50,HS 578T; [1],> 100 µM
same,TGI,HS 578T,5.37 µM
same,GI50,SF-295; Homo sapiens,1.66 µM
same,CC50,SF-295; [1],5.97 µM
same,TGI,SF-295,3.15 µM
same,GI50,MCF7; Homo sapiens,1.4 µM
same,CC50,MCF7; [1],6.71 µM
same,TGI,MCF7,3.07 µM
same,GI50,MDA-MB-31/ATCC; Homo sapiens,1.4 µM
same,CC50,MDA-MB-31/ATCC; [1],5.78 µM
same,TGI,MDA-MB-31/ATCC,2.84 µM
same,GI50,SNB-19; Homo sapiens,1.68 µM
same,CC50,SNB-19; [1],7.12 µM
same,TGI,SNB-19,3.46 µM
